Source: ChEMBL document CHEMBL1201862, “PubChem BioAssay data set” (2004)
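In this assay, cells in 96-well plates receive the compound at five concentrations for 48 hours. Endpoints are linearly interpolated between the surrounding concentrations. GI50 = concentration required for 50% inhibition of growth.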 Calls of active or inactive are those of the source. No stated cut-off is given here; in the data, active = GI50 up to about 1.1 µM and inactive = higher.

Assays:
Assay in all cases: growth of human tumour cells (NCI), 48 h
OVCAR-5 = system: OVCAR-5
SR = system: SR
HT-29 = system: HT-29
MOLT-4 = system: MOLT-4
HL-60 = system: HL-60
RPMI-8226 = system: RPMI-8226
HOP-92 = system: HOP-92
RXF 393 = system: RXF 393
SK-MEL-5 = system: SK-MEL-5
MDA-MB-231 = system: MDA-MB-231
SF-295 = system: SF-295
NCI-H226 = system: NCI-H226
MCF7 = system: MCF7
U-251 = system: U-251
OVCAR-8 = system: OVCAR-8
NCI-H522 = system: NCI-H522
EKVX = system: EKVX
HOP-62 = system: HOP-62
SN12C = system: SN12C
K562 = system: K562
M14 = system: M14
DU-145 = system: DU-145
CAKI-1 = system: CAKI-1
SNB-75 = system: SNB-75
786-0 = system: 786-0
OVCAR-4 = system: OVCAR-4
A498 = system: A498
SK-MEL-2 = system: SK-MEL-2
UACC-257 = system: UACC-257
OVCAR-3 = system: OVCAR-3
SW-620 = system: SW-620
KM12 = system: KM12
ACHN = system: ACHN
PC-3 = system: PC-3
TK-10 = system: TK-10
LOX IMVI = system: LOX IMVI
A549 = system: A549
Malme-3M = system: Malme-3M
MDA-N = system: MDA-N
COLO 205 = system: COLO 205
UO-31 = system: UO-31
HCT-116 = system: HCT-116
T47D = system: T47D
Hs-578T = system: Hs-578T
IGROV-1 = system: IGROV-1
SK-MEL-28 = system: SK-MEL-28
SF-539 = system: SF-539
SF-268 = system: SF-268
MDA-MB-435 = system: MDA-MB-435
SK-OV-3 = system: SK-OV-3
SNB-19 = system: SNB-19
BT-549 = system: BT-549
HCT-15 = system: HCT-15
NCI/ADR-RES = system: NCI/ADR-RES
UACC-62 = system: UACC-62
CCRF-CEM = system: CCRF-CEM
NCI-H23 = system: NCI-H23
NCI-H460 = system: NCI-H460
HCC 2998 = system: HCC 2998

For `CC1C(=O)C(C)C(c2ccccc2)N(C)C1c1ccccc1` (centres undefined), the GI50 (OVCAR-5) was 50.9 µM (inactive), the GI50 (SR) was 20.2 µM (inactive) and the GI50 (HT-29) was 28.6 µM (inactive). For the same compound, the GI50 (MOLT-4) was 19.9 µM (inactive), the GI50 (HL-60) was 20.7 µM (inactive) and the GI50 (RPMI-8226) was 21.8 µM (inactive).

For `OCC(O)C(O)C(C=NNc1ncnc2ccc(Br)cc12)=NNc1ncnc2ccc(Br)cc12` (centres undefined), the GI50 (HOP-92) was 2.24 µM (inactive), the GI50 (OVCAR-5) was 3.58 µM (inactive) and the GI50 (RXF 393) was 2.14 µM (inactive). The GI50 (SK-MEL-5) was 0.968 µM (active), the GI50 (MDA-MB-231) was 1.88 µM (inactive) and the GI50 (SF-295) was 3.25 µM (inactive). For the same compound, the GI50 (NCI-H226) was 1.67 µM (inactive), the GI50 (MCF7) was 0.378 µM (active) and the GI50 (U-251) was 1.75 µM (inactive). The GI50 (SR) was 0.492 µM (active), the GI50 (OVCAR-8) was 0.533 µM (active) and the GI50 (NCI-H522) was 0.383 µM (active). For the same compound, the GI50 (EKVX) was 0.406 µM (active), the GI50 (HOP-62) was 2.64 µM (inactive) and the GI50 (SN12C) was 2.39 µM (inactive). For the same compound, the GI50 (K562) was 2.25 µM (inactive), the GI50 (M14) was 1.62 µM (inactive) and the GI50 (DU-145) was 1.34 µM (inactive). The GI50 (CAKI-1) was 0.83 µM (active), the GI50 (SNB-75) was 2.46 µM (inactive) and the GI50 (786-0) was 0.834 µM (active). The GI50 (OVCAR-4) was 0.383 µM (active), the GI50 (A498) was 4.23 µM (inactive) and the GI50 (HT-29) was 0.556 µM (active). The GI50 (SK-MEL-2) was 2.3 µM (inactive), the GI50 (UACC-257) was 3.1 µM (inactive) and the GI50 (OVCAR-3) was 0.339 µM (active). For the same compound, the GI50 (SW-620) was 0.809 µM (active), the GI50 (MOLT-4) was 0.258 µM (active) and the GI50 (KM12) was 2.72 µM (inactive). For the same compound, the GI50 (ACHN) was 0.729 µM (active), the GI50 (PC-3) was 4.35 µM (inactive) and the GI50 (TK-10) was 8.45 µM (inactive). The GI50 (LOX IMVI) was 0.745 µM (active), the GI50 (A549) was 2.88 µM (inactive) and the GI50 (Malme-3M) was 0.378 µM (active). For the same compound, the GI50 (MDA-N) was 3.63 µM (inactive), the GI50 (COLO 205) was 0.255 µM (active) and the GI50 (HL-60) was 0.282 µM (active). For the same compound, the GI50 (UO-31) was 2.78 µM (inactive), the GI50 (HCT-116) was 0.358 µM (active) and the GI50 (T47D) was 0.373 µM (active). The GI50 (Hs-578T) was 9.62 µM (inactive), the GI50 (IGROV-1) was 0.726 µM (active) and the GI50 (SK-MEL-28) was 1.45 µM (inactive). For the same compound, the GI50 (RPMI-8226) was 1.19 µM (inactive), the GI50 (SF-539) was 1.94 µM (inactive) and the GI50 (SF-268) was 1.29 µM (inactive). For the same compound, the GI50 (MDA-MB-435) was 3.38 µM (inactive), the GI50 (SK-OV-3) was 1.85 µM (inactive) and the GI50 (SNB-19) was 2.17 µM (inactive).

For `CCOC(=O)CC[C@H](NC(=O)N[C@H](C)c1ccccc1)C(=O)OCC`, the GI50 (HOP-92) was 22 µM (inactive), the GI50 (OVCAR-5) was > 100 µM (inactive) and the GI50 (SK-MEL-5) was 37 µM (inactive). The GI50 (MDA-MB-231) was 28.6 µM (inactive), the GI50 (SF-295) was > 100 µM (inactive) and the GI50 (NCI-H226) was > 100 µM (inactive). For the same compound, the GI50 (MCF7) was 32.7 µM (inactive), the GI50 (U-251) was 39.8 µM (inactive) and the GI50 (SR) was 84.9 µM (inactive). For the same compound, the GI50 (OVCAR-8) was > 100 µM (inactive), the GI50 (EKVX) was > 100 µM (inactive) and the GI50 (HOP-62) was > 100 µM (inactive). For the same compound, the GI50 (SN12C) was 40.6 µM (inactive), the GI50 (K562) was 36.1 µM (inactive) and the GI50 (M14) was 14.8 µM (inactive). The GI50 (DU-145) was 83.2 µM (inactive), the GI50 (CAKI-1) was > 100 µM (inactive) and the GI50 (786-0) was 37.9 µM (inactive). For the same compound, the GI50 (OVCAR-4) was 52.1 µM (inactive), the GI50 (A498) was > 100 µM (inactive) and the GI50 (HT-29) was > 100 µM (inactive). For the same compound, the GI50 (SK-MEL-2) was 23.4 µM (inactive), the GI50 (BT-549) was > 100 µM (inactive) and the GI50 (UACC-257) was 18.3 µM (inactive). For the same compound, the GI50 (OVCAR-3) was 18 µM (inactive), the GI50 (SW-620) was > 100 µM (inactive) and the GI50 (MOLT-4) was 20.1 µM (inactive). For the same compound, the GI50 (KM12) was 73.1 µM (inactive), the GI50 (HCT-15) was over 100 µM and the GI50 (NCI/ADR-RES) was 22.8 µM (inactive). For the same compound, the GI50 (ACHN) was 53.5 µM (inactive), the GI50 (PC-3) was 84.7 µM (inactive) and the GI50 (TK-10) was 42.8 µM (inactive). The GI50 (LOX IMVI) was 55.7 µM (inactive), the GI50 (A549) was > 100 µM (inactive) and the GI50 (MDA-N) was 18.6 µM (inactive). For the same compound, the GI50 (COLO 205) was 18.7 µM (inactive), the GI50 (HL-60) was > 100 µM (inactive) and the GI50 (UO-31) was 29.2 µM (inactive). The GI50 (UACC-62) was 16.1 µM (inactive), the GI50 (HCT-116) was > 100 µM (inactive) and the GI50 (IGROV-1) was 20.8 µM (inactive). The GI50 (CCRF-CEM) was 22.6 µM (inactive), the GI50 (SK-MEL-28) was 20.9 µM (inactive) and the GI50 (NCI-H23) was 89.1 µM (inactive). For the same compound, the GI50 (RPMI-8226) was 41 µM (inactive), the GI50 (SF-539) was 14.7 µM (inactive) and the GI50 (NCI-H460) was > 100 µM (inactive). The GI50 (HCC 2998) was 25.9 µM (inactive), the GI50 (MDA-MB-435) was 27.9 µM (inactive) and the GI50 (SK-OV-3) was > 100 µM (inactive). The GI50 (SNB-19) was > 100 µM (inactive).
